Data taken from patent publication US20030100034A1, “9136, a human aldehyde dehydrogenase family member and uses therefor” (Millennium Pharmaceuticals, Inc., priority 2001, published 2003).

Test system: 9136 in NCI-H125 cells
Test: 9136 expression after 4HT induction of p53ER in NCI-H125 cells
Format: cell-based, human
Description: Total RNA was prepared from various human tissues by a single step extraction method using RNA STAT-60 according to the manufacturer's instructions (TelTest, Inc). Each RNA preparation was treated with DNase I (Ambion) at 37° C. for 1 hour. DNAse I treatment was determined to be complete if the sample required at least 38 PCR amplification cycles to reach a threshold level of fluorescence using β-2 microglobulin as an internal amplicon reference. The integrity of the RNA samples following DNase I treatment was confirmed by agarose gel electrophoresis and ethidium bromide staining. After phenol extraction cDNA was prepared from the sample using the SUPERSCRIPT™ Choice System following the manufacturer's instructions (GibcoBRL). A negative control of RNA without reverse transcriptase was mock reverse transcribed for each RNA sample. Human 9136 expression was measured by TaqMan® & quantitative PCR (Perkin Elmer Applied Biosystems) in cDNA prepared from a variety of normal and diseased (e.g., cancerous) human tissues or cell lines. Probes were designed by PrimerExpress software (PE Biosystems) based on the sequence of the human 9136 gene. Each human 9136 gene probe was labeled using FAM (6-carboxyfluorescein), and the β2-microglobulin reference probe was labeled with a different fluorescent dye, VIC. The differential labeling of the target gene and internal reference gene thus enabled measurement in same well. Forward and reverse primers and the probes for both β2-microglobulin and target gene were added to the TaqMan® Universal PCR Master Mix (PE Applied Biosystems). Although the final concentration of primer and probe could vary, each was internally consistent within a given experiment. A typical experiment contained 200 nM of forward and reverse primers plus 100 nM probe for β-2 microglobulin and 600 nM forward and reverse primers plus 200 nM probe for the target gene. TaqMan matrix experiments were carried out on an ABI PRISM 7700 Sequence Detection System (PE Applied Biosystems). The thermal cycler conditions were as follows: hold for 2 min at 50° C. and 10 min at 95° C., followed by two-step PCR for 40 cycles of 95° C. for 15 sec followed by 60° C. for 1 min.
The following method was used to quantitatively calculate human 9136 gene expression in the various tissues relative to β-2 microglobulin expression in the same tissue. The threshold cycle (Ct) value is defined as the cycle at which a statistically significant increase in fluorescence is detected. A lower Ct value is indicative of a higher mRNA concentration. The Ct value of the human 9136 gene is normalized by subtracting the Ct value of the β-2 microglobulin gene to obtain a ΔCt value using the following formula: ΔCt=[…]−Ctβ-2 microglobulin. Expression is then calibrated against a cDNA sample showing a comparatively low level of expression of the human 9136 gene. The ΔCt value for the calibrator sample is then subtracted from ΔCt for each tissue sample according to the following formula: ΔΔCt=ΔCt-sample−ΔCt-calibrator. Relative expression is then calculated using the arithmetic formula given by 2^−ΔΔCt. Relative expression levels of the target human 9136 gene in each of the tissues tested is then graphically represented as discussed in more detail below.
In addition, a study of the 9136 gene expression levels, with or without introduction of p53 expression, was carried out in several carcinoma cell lines. The p53 tumor suppressor gene has been the subject of intense study for a number of years. […] One of those identified genes is 9136, which, as mentioned earlier, is the human ALDH6 gene.

With `CC/C(=C(\c1ccc(O)cc1)c1ccc(OCCN(C)C)cc1)c1ccccc1` [4HT] the “9136 Expression” value (0 hr post-4HT induction) was 5.82, the “9136 Expression” value (5 min post-4HT induction) was 6.29 and the “9136 Expression” value (20 min post-4HT induction) was 5.64. The “9136 Expression” value (1 hr post-4HT induction) was 5.60, the “9136 Expression” value (3 hr post-4HT induction) was 5.83 and the “9136 Expression” value (9 hr post-4HT induction) was 5.10. For the same molecule, the “9136 Expression” value (24 hr post-4HT induction) was 3.1 and the “9136 Expression” value (48 hr post-4HT induction) was 3.03.
